What was measured:
[1] = test system: HT-29 human colon cancer cells; experiment: HT-29 colon tumour xenograft in nude mice, combination with CPT-11 (1.2); format: in vivo, human cells in mice; conditions: HT-29 (colon), CD-1; SEQ ID NO:1 10 mg/kg i.v. every other day; CPT-11 20 mg/kg i.p. days 7-12
Source text: All treatments were stopped at day 22. […] All treatments were stopped at day 32. […] All treatments were stopped at day 36.

[2] = test system: LS513 multi-drug resistant colon carcinoma cells; experiment: LS513 multi-drug resistant colon carcinoma xenograft in SCID mice, combination with CPT-11 (2.8); format: in vivo, human cells in mice; conditions: LS513 (colon) multi-drug resistant (CPT-11 sensitive), SCID; SEQ ID NO:1 10 mg/kg i.v. every other day; CPT-11 20 mg/kg/day i.p. 5 days
Method: (§1) BxPC-3 is a gemcitabine resistant call line. […] Gemcitabine was administered intravenously every three days at a dose of 100 mg/kg. Antitumour activities were estimated by the inhibition of tumour volume, which was measured with caliper. Each point represents mean tumour volume calculated from 10 animals per experimental group. […] Hela S3 is a hydroxyurea resistant cell line. […] Hydroxyurea was administered intraperitoneally every day at a dose of 250 mg/kg for 10 days. Cisplatin was administered intravenously once a week for three weeks at a dose of 4 mg/kg. Antitumour activities were estimated by the inhibition of tumour volume, which was measured with caliper. Each point represents mean tumour volume calculated from 10 animals per experimental group. […] Cisplatin was administered intravenously once a week for three weeks at a dose of 4 mg/kg. Taxol was administered intravenously once a week for three weeks at a dose of 10 mg/kg. Antitumour activities were estimated by the inhibition of tumour volume, which was measured with caliper. Each point represents mean tumour volume calculated from 10 animals per experimental group. […] Taxol was administered i.p. once a week at a dose of 10 mg/kg. Antitumour activities were estimated by the inhibition of tumour volume (FIG. 12A), which was measured with calipers. Each point represents mean tumour volume calculated from 10 animals per experimental group. […] Antitumour activities were estimated by the inhibition of tumour volume, which was measured with caliper. Each point represents mean tumour volume calculated from 9-10 animals per experimental group. […] Antitumour activities were estimated by the inhibition of tumour volume, which was measured with caliper. Each point represents mean tumour volume calculated from 10 animals per experimental group. […] Anti-tumour activity was estimated by the inhibition of tumour volume, which was measured with caliper. Each point represents mean tumour volume calculated from 10 animals per experimental group. […] Antitumour activities were estimated by the inhibition of tumour volume, which was measured with caliper. […]

[3] = test system: SK-OV-3 human ovary adenocarcinoma cells; experiment: SK-OV-3 ovary tumour xenograft in CD-1 nude mice, combination with taxol or cisplatin (1.8); format: in vivo, human cells in mice; conditions: SK-OV-3 (ovary), CD-1; SEQ ID NO:1 10 mg/kg i.v. every other day 17 times; Taxol 10 mg/kg weekly; Cisplatin 4 mg/kg weekly
Method: After 52 days the mice were sacrificed and the tumours weighed. […] Mitoxantrone was administered intravenously once at the beginning of the treatments at a dose of 2 mg/kg (FIG. 4A) or once a week for four weeks at a reduced dose of 0.8 mg/kg (FIG. 4B). All treatments were stopped at day 50 (FIG. 4A) or 48 (FIG. 4B), respectively. […] Mitoxantrone was administered intravenously once at the beginning of the treatments at a dose of 2 mg/kg (FIG. 5A) or once a week for four weeks at a reduced dose of 0.8 mg/kg (FIG. 5B). All treatments were stopped at day 42 (FIG. 5A) or 38 (FIG. 5B), respectively. […] A2058 is a metastatic melanoma cell line. […] All treatments were stopped at day 24. […] Taxol was administered intravenously once a week at a dose of 10 mg/kg for three (FIG. 7A) or four weeks (FIG. 7C). Doxorubicin was administered intravenously once a week at a dose of 5 mg/kg for first three weeks (FIG. 7A) or for two weeks (FIG. 7C). All treatments were stopped at day 33 (FIG. 7A) or at day 26 (FIG. 7C), respectively. […] In FIG. 7C, antitumour activities were estimated by the inhibition of tumour volume, which was measured with calipers. Each point represents mean tumour volume calculated from 10 animals per experimental group. […] Taxol was administered intravenously once a week for first three weeks and intraperitoneally once a week for next two weeks at a dose of 10 mg/kg. Cisplatin was administered intravenously once a week for first three weeks and intraperitoneally once a week for next two weeks at a dose of 4 mg/kg. All treatments were stopped at day 40. Antitumour activities were estimated by the inhibition of tumour volume, which was measured with caliper. Each point represents mean tumour volume calculated from 9 animals per experimental group.

[4] = test system: Hela S3 human cervix epitheloid carcinoma cells; experiment: Hela S3 hydroxyurea resistant cervix carcinoma xenograft in SCID mice; format: in vivo, human cells in mice; conditions: Hela S3 (cervix), hydroxyurea resistant, SCID; SEQ ID NO:1 10 mg/kg i.v. every other day 6 times; Hydroxyurea 250 mg/kg i.p. daily 10 days; Cisplatin 4 mg/kg i.v. weekly x3
Method: BxPC-3 is a gemcitabine resistant call line. […] Gemcitabine was administered intravenously every three days at a dose of 100 mg/kg. Antitumour activities were estimated by the inhibition of tumour volume, which was measured with caliper. Each point represents mean tumour volume calculated from 10 animals per experimental group. […] Hela S3 is a hydroxyurea resistant cell line. […] Hydroxyurea was administered intraperitoneally every day at a dose of 250 mg/kg for 10 days. Cisplatin was administered intravenously once a week for three weeks at a dose of 4 mg/kg. Antitumour activities were estimated by the inhibition of tumour volume, which was measured with caliper. Each point represents mean tumour volume calculated from 10 animals per experimental group. […] Cisplatin was administered intravenously once a week for three weeks at a dose of 4 mg/kg. Taxol was administered intravenously once a week for three weeks at a dose of 10 mg/kg. Antitumour activities were estimated by the inhibition of tumour volume, which was measured with caliper. Each point represents mean tumour volume calculated from 10 animals per experimental group. […] Taxol was administered i.p. once a week at a dose of 10 mg/kg. Antitumour activities were estimated by the inhibition of tumour volume (FIG. 12A), which was measured with calipers. Each point represents mean tumour volume calculated from 10 animals per experimental group. Animals were sacrificed and tumour weights taken at the end of the study (FIG. 12C). […] The effects of combined treatment were greater than either treatment alone. […] Cisplatin was administered intravenously once a week for four weeks at a dose of 4 mg/kg. Taxol was administered intravenously once a week for four weeks at a dose of 20 mg/kg. Antitumour activities were estimated by the inhibition of tumour volume, which was measured with caliper. Each point represents mean tumour volume calculated from 9-10 animals per experimental group. […] Cisplatin was administered intravenously once a week for four weeks at a dose of 4 mg/kg. Antitumour activities were estimated by the inhibition of tumour volume, which was measured with caliper. Each point represents mean tumour volume calculated from 10 animals per experimental group. At the end of the study the animals were sacrificed and tumours weighed. […] Taxol was administered i.p. once a week at a dose of 10 mg/kg. Anti-tumour activity was estimated by the inhibition of tumour volume, which was measured with caliper. Each point represents mean tumour volume calculated from 10 animals per experimental group. In addition animals were sacrificed and tumour weights taken at the end of the study. […] CPT-11 was administered i.p. for 5 days at a dose of 20 mg/kg/day. Antitumour activities were estimated by the inhibition of tumour volume, which was measured with caliper. Each point represents mean tumour volume calculated from 10 animals per experimental group. Tumour weights were measured after animals were sacrificed at the end of the treatment. These cells are not resistant to CPT-11 which was used as a positive control.

[5] = test system: MDA-CDDP-S4 human in vivo-selected Cisplatin-resistant breast adenocarcinoma cells; experiment: MDA-CDDP-S4 Cisplatin-resistant breast adenocarcinoma, fat pad, SCID mice (2.3); set-up: species or system human cells in mice
Method: (§2) BxPC-3 is a gemcitabine resistant call line. […] Gemcitabine was administered intravenously every three days at a dose of 100 mg/kg. Antitumour activities were estimated by the inhibition of tumour volume, which was measured with caliper. Each point represents mean tumour volume calculated from 10 animals per experimental group. […] Hela S3 is a hydroxyurea resistant cell line. […] Hydroxyurea was administered intraperitoneally every day at a dose of 250 mg/kg for 10 days. Cisplatin was administered intravenously once a week for three weeks at a dose of 4 mg/kg. Antitumour activities were estimated by the inhibition of tumour volume, which was measured with caliper. Each point represents mean tumour volume calculated from 10 animals per experimental group. […] Cisplatin was administered intravenously once a week for three weeks at a dose of 4 mg/kg. Taxol was administered intravenously once a week for three weeks at a dose of 10 mg/kg. Antitumour activities were estimated by the inhibition of tumour volume, which was measured with caliper. Each point represents mean tumour volume calculated from 10 animals per experimental group. […] Taxol was administered i.p. once a week at a dose of 10 mg/kg. Antitumour activities were estimated by the inhibition of tumour volume (FIG. 12A), which was measured with calipers. Each point represents mean tumour volume calculated from 10 animals per experimental group. Animals were sacrificed and tumour weights taken at the end of the study (FIG. 12C). […] Cisplatin was administered intravenously once a week for four weeks at a dose of 4 mg/kg. Taxol was administered intravenously once a week for four weeks at a dose of 20 mg/kg. Antitumour activities were estimated by the inhibition of tumour volume, which was measured with caliper. Each point represents mean tumour volume calculated from 9-10 animals per experimental group. […] Cisplatin was administered intravenously once a week for four weeks at a dose of 4 mg/kg. Antitumour activities were estimated by the inhibition of tumour volume, which was measured with caliper. Each point represents mean tumour volume calculated from 10 animals per experimental group. At the end of the study the animals were sacrificed and tumours weighed. […] Taxol was administered i.p. once a week at a dose of 10 mg/kg. Anti-tumour activity was estimated by the inhibition of tumour volume, which was measured with caliper. Each point represents mean tumour volume calculated from 10 animals per experimental group. In addition animals were sacrificed and tumour weights taken at the end of the study. […] CPT-11 was administered i.p. for 5 days at a dose of 20 mg/kg/day. Antitumour activities were estimated by the inhibition of tumour volume, which was measured with caliper. Each point represents mean tumour volume calculated from 10 animals per experimental group. Tumour weights were measured after animals were sacrificed at the end of the treatment. These cells are not resistant to CPT-11 which was used as a positive control.

[6] = test system: MDA-MB435-To.1 human Taxol-resistant breast adenocarcinoma cells; experiment: MDA-MB435-To.1 Taxol-resistant breast adenocarcinoma, fat pad, SCID mice (2.5); format: in vivo, human cells in mice; conditions: MDA-MB435-To.1 (breast), Taxol resistant, SCID; SEQ ID NO:1 10 mg/kg i.v. every other day 15 times; Taxol 20 mg/kg, Cisplatin 4 mg/kg i.v. weekly x4
Method: as §2

[7] = test system: MDA-MB435-To.1 human Taxol-resistant breast adenocarcinoma cells; experiment: MDA-MB435-To.1 Taxol-resistant breast adenocarcinoma, fat pad, CB-17 SCID mice, combination with Cisplatin (2.6); format: in vivo, human cells in mice; conditions: MDA-MB435-To.1 (breast), Taxol resistant, CB-17/SCID; SEQ ID NO:1 10 mg/kg i.v. every other day; Cisplatin 4 mg/kg i.v. weekly x4
Method: as §1

| SMILES | Tumour weight as % of saline control [1] [%] | Tumour weight as % of saline control [2] [%] | tumour volume data as percentage of saline control [3] [%] | Tumour weight as % of saline control [4] [%] | Tumour weight as % of saline control ([5]; MDA-CDDP-S4 (breast), Cisplatin resistant, SCID, SEQ ID NO:1 10 mg/kg i.v. every other day 9 times, Taxol 10 mg/kg, Cisplatin 4 mg/kg i.v. weekly x3) [%] | Antitumour effect (FIG. 11) ([5]; MDA-CDDP-S4 Cisplatin-resistant, SCID mice, SEQ ID NO:1 10 mg/kg i.v. every other day, Cisplatin 4 mg/kg, Taxol 10 mg/kg i.v. weekly) | Tumour weight as % of saline control [6] [%] | Tumour weight as % of saline control [7] [%] |
| --- | --- | --- | --- | --- | --- | --- | --- | --- |
| CCc1c2c(nc3ccc(OC(=O)N4CCC(N5CCCCC5)CC4)cc13)-c1cc3c(c(=O)n1C2)COC(=O)[C@]3(O)CC [CPT-11, irinotecan, reference compound] | 36 | 47 |  |  |  |  |  |  |
| N.N.[Cl][Pt][Cl] [Cisplatin, reference compound] |  |  | 67 | 63 | 78 | ineffective against Cisplatin-resistant tumour | 69 | 56 |

Source: patent US7968526B2, “Antisense oligonucleotides directed to ribonucleotide reductase R2 and uses thereof in the treatment of cancer” (Lorus Therapeutics Inc., priority 2003, dated 2011)
